Consider one compound from patent publication US8877746B2, “Compositions for delivery of insoluble agents” (Cardioklne, Inc, priority 2009, dated 2014).

Series [1] in a line: Solubility of lixivaptan in water. The format is physicochemical. Here is the method: Lixivaptan is very poorly soluble in water (less than 20 ng/mL). Salt formation (a frequently used approach to increase aqueous solubility) was not possible. The bioavailability of lixivaptan can be extremely low in conventional dosage forms (i.e., when blended with excipients and compressed into tablets or filled into capsules).

Series [2] is described as follows: Solubility in 1.5% SDS at 25° C. The series is classed as physicochemical.

In brackets after ≈: the same amount, converted by molar mass.

In the case of `Cc1ccc(F)cc1C(=O)Nc1ccc(C(=O)N2Cc3cccn3Cc3ccccc32)c(Cl)c1` [Lixivaptan, 5-fluoro-2-methyl-N-[4-(5H-pyrrolo[2,1-c]-[1,4]-benzodiazepin-10(11H)-ylcarbonyl)-3-chlorophenyl]benzamide], the solubility in series [1] was below 0.02 µg/mL. Besides, the “Solubility (mg/mL in 1.5% SDS, 25° C.) 1 h” value in series [2] (1 h) was 0.019 mg/mL (≈ 40.1 µM). In addition, in series [2] (aqueous with cosolvent or surfactant or cyclodextrin, 24 h, read-out: Solubility (mg/mL in 1.5% SDS, 25° C.) 24 h), the solubility at 24 h is 0.024 mg/mL (≈ 50.6 µM).
